Measurements as given in the NIST ThermoML archive (doi:10.1016/j.jct.2005.04.018).

Conditions: Liquid; for speed of sound: Linear variable-path acoustic interferometer; for mass density: Vibrating tube method

CCCC[n+]1ccn(C)c1.O=S(=O)([N-]S(=O)(=O)C(F)(F)F)C(F)(F)F
Conditions	mass density [kg/m3]	speed of sound [m/s]
313.15 K, 10010 kPa	–	1228.7
313.15 K, 12380 kPa	1431.97	–
313.15 K, 14840 kPa	1433.7	–
313.15 K, 17300 kPa	1435.41	–
313.15 K, 19760 kPa	1437.1	–
313.15 K, 19960 kPa	–	1261.1
313.15 K, 22210 kPa	1438.8	–
313.15 K, 24670 kPa	1440.5	–
313.15 K, 27130 kPa	1442.16	–
313.15 K, 29590 kPa	1443.8	–
313.15 K, 32050 kPa	1445.44	–
313.15 K, 34510 kPa	1447.05	–
313.15 K, 36970 kPa	1448.67	–
313.15 K, 39430 kPa	1450.26	–
313.15 K, 41880 kPa	1451.88	–
313.15 K, 44340 kPa	1453.41	–
313.15 K, 46800 kPa	1455.01	–
313.15 K, 49260 kPa	1456.51	–
313.15 K, 51720 kPa	1458.07	–
313.15 K, 54180 kPa	1459.64	–
313.15 K, 56640 kPa	1461.15	–
313.15 K, 59100 kPa	1462.71	–
313.15 K, 59730 kPa	–	1373.5
313.15 K, 98970 kPa	–	1466.4
313.15 K, 150890 kPa	–	1573.2
318.14 K, 100 kPa	1418.06	–
318.14 K, 5000 kPa	1421.63	–
318.14 K, 7460 kPa	1423.41	–
318.14 K, 9920 kPa	1425.23	–
318.14 K, 12380 kPa	1427	–
318.14 K, 14840 kPa	1428.76	–
318.14 K, 17300 kPa	1430.5	–
318.14 K, 19760 kPa	1432.21	–
318.14 K, 22210 kPa	1433.93	–
318.14 K, 24670 kPa	1435.62	–
318.14 K, 27130 kPa	1437.31	–
318.14 K, 29590 kPa	1439.01	–
318.14 K, 32050 kPa	1440.66	–
318.14 K, 34510 kPa	1442.31	–
318.14 K, 36970 kPa	1443.93	–
318.14 K, 39430 kPa	1445.59	–
318.14 K, 41880 kPa	1447.2	–
318.14 K, 44340 kPa	1448.84	–
318.14 K, 46800 kPa	1450.43	–
318.14 K, 49260 kPa	1452.03	–
318.14 K, 51720 kPa	1453.64	–
318.14 K, 54180 kPa	1455.23	–
318.14 K, 56640 kPa	1456.83	–
318.14 K, 59100 kPa	1458.39	–
323.14 K, 100 kPa	1413.69	–
323.14 K, 5000 kPa	1417.31	–
323.14 K, 7460 kPa	1419.14	–
323.14 K, 9920 kPa	1420.97	–
323.14 K, 12380 kPa	1422.8	–
323.14 K, 14840 kPa	1424.57	–
323.14 K, 17300 kPa	1426.35	–
323.14 K, 19760 kPa	1428.11	–
323.14 K, 22210 kPa	1429.82	–
323.14 K, 24670 kPa	1431.56	–
323.14 K, 27130 kPa	1433.26	–
323.14 K, 29590 kPa	1434.96	–
323.14 K, 32050 kPa	1436.63	–
323.14 K, 34510 kPa	1438.32	–
323.14 K, 36970 kPa	1439.98	–
323.14 K, 39430 kPa	1441.63	–
323.14 K, 41880 kPa	1443.28	–
323.14 K, 44340 kPa	1444.91	–
323.14 K, 46800 kPa	1446.54	–
323.14 K, 49260 kPa	1448.18	–
323.14 K, 51720 kPa	1449.79	–
323.14 K, 54180 kPa	1451.4	–
323.14 K, 56640 kPa	1453.01	–
323.14 K, 59100 kPa	1454.62	–
323.15 K, 100 kPa	–	1172.6
323.15 K, 5050 kPa	–	1190.2
323.15 K, 10030 kPa	–	1207.8
323.15 K, 19940 kPa	–	1241
323.15 K, 59810 kPa	–	1355.9
323.15 K, 99220 kPa	–	1450.8
323.15 K, 150840 kPa	–	1557.4
328.2 K, 100 kPa	1408.32	–
328.2 K, 5000 kPa	1412.04	–
328.2 K, 7460 kPa	1413.97	–
328.2 K, 9920 kPa	1415.75	–
328.2 K, 12380 kPa	1417.61	–
328.2 K, 14840 kPa	1419.44	–
328.2 K, 17300 kPa	1421.25	–
328.2 K, 19760 kPa	1423.05	–
328.2 K, 22210 kPa	1424.84	–
328.2 K, 24670 kPa	1426.58	–
328.2 K, 27130 kPa	1428.34	–
328.2 K, 29590 kPa	1430.04	–
328.2 K, 32050 kPa	1431.76	–
328.2 K, 34510 kPa	1433.46	–
328.2 K, 36970 kPa	1435.15	–
328.2 K, 39430 kPa	1436.83	–
328.2 K, 41880 kPa	1438.52	–
328.2 K, 44340 kPa	1440.15	–
328.2 K, 46800 kPa	1441.79	–
328.2 K, 49260 kPa	1443.46	–
328.2 K, 51720 kPa	1445.11	–
328.2 K, 54180 kPa	1446.72	–
328.2 K, 56640 kPa	1448.35	–
328.2 K, 59100 kPa	1449.96	–
